Assay results as given in patent US20120115852A1, “HETEROCYCLIC COMPOUNDS AS AUTOTAXIN INHIBITORS” (Merck Patent Gesellschaft Mit Beschrankter Haftung, priority 2009, published 2012).

Target: T1, recombinant autotaxin (Homo sapiens, UniProt Q13822)
T1 construct: made in house; host or cells: Hi5 insect cells (baculovirus)
Test: Autotaxin test (enzyme test), Amplex Red fluorescence with LPC substrate
Type: biochemical
Details: autotaxin inhibition (enzyme test); for remaining activity at 10 µM: 10 μM compound, read-out: % Control at 10 μM
Description: Autotaxin Inhibition (Enzyme Test)
Autotaxin Test (Enzyme Test)
The autotaxin activity is measured indirectly using Amplex Red reagent. Amplex Red is measured here as fluorogenic indicator for the H2O2 formed. In detail, autotaxin converts the substrate lysophosphatidylcholine (LPC) into phosphocholine and lysophosphatidylic acid (LPA). After this reaction, the phosphocholine is reacted with alkaline phosphatase to give inorganic phosphate and choline. In the next step, choline is oxidised by choline oxidase to give betaine, with formation of H2O2. H2O2 reacts with Amplex Red reagent in the presence of peroxidase (horseradish peroxidase) in a 1:1 stoichiometry and forms the highly fluorescent resorufin. The fluorescence is measured in a reaction-dependent kinetic mode in order that fluorescent signals from possible other fluorescent substances which are not involved in the reaction can be corrected out.
3 μl of a standard solution or of the test substances (substances with the name A(n)) in individual concentrations dissolved in 20 mM Hepes pH 7.2 with a maximum of 11% of DMSO are pre-incubated together with 20 μl (19 ng) of highly purified recombinant autotaxin in test buffer in a black microtitre plate provided with 384 wells at 22° C. for 30 min. The reaction is then initiated by addition of 10 μl of L-α-lysophosphatidylcholine (LPC), where the final concentration of LPC is 75 μM. The mixture is incubated at 37° C. for 90 min. After the incubation, Amplex Red reagent, peroxidase (horseradish peroxidase) and choline oxidase is added, and the fluorescence is immediately measured at 612 nm with excitation of 485 nm in a “Tecan Ultra multimode” reader. The activity of autotaxin is calculated indirectly via detection of the H2O2 formed.
• Microtitre plate: PS microplate, 384 wells, small volume, black Corning, Cat#3677 • Protein: recombinant autotaxin (Baculovirale Hi5 Expression) • Substrate: L-α-lysophosphatidylcholine (chicken egg)); Avanti Polar Lipids #830071 P • Standard: C14 LPA, Avanti Polar Lipids, Cat#857120P • Detection reagent: Amplex Red reagent; Invitrogen #A12222; 5 mg dissolved in 1.923 ml of DMSO peroxidase type VI-A (horseradish) from Sigma #P6782; 5 mg dissolved in 7.45 ml of test buffer, choline oxidase; Sigma # C5896; 50 U dissolved in 2.47 ml of test buffer • Detection reagent mix: 1:50 dilution of detection reagent in test buffer • Test buffer: 10 mM Tris HCl, Merck, Cat #1.08219, pH 8, 1 mM; CaCl2×2 H2O, Merck #1.02382

SMILES | remaining activity at 10 µM [%] | IC50 [µM]
CC(C)(C)[C@H](N)C(=O)N1CCN2C(=O)c3cc(-c4ccc(Cl)cc4)ccc3NC(=O)[C@@H]2C1 [Compound A80, (S)-2-((S)-2-Amino-3,3-dimethylbutyryl)-7-(4-chloro-phenyl)-1,3,4,11a-tetrahydro-2H,10H-2,4a,10-triaza-dibenzo[a,d]cycloheptene-5,11-dione] | 44 | 
CC(C)(C)CC(=O)N1CCN2C(=O)c3cc(-c4ccc(Cl)c(F)c4)ccc3NC(=O)C2C1 (stereo not shown) [Compound A94, 7-(4-Chloro-3-fluorophenyl)-2-(3,3-dimethylbutyryl)-1,3,4,11a-tetrahydro-2H,10H-2,4a,10-triaza-dibenzo[a,d]cycloheptene-5,11-dione] | -18 | > 1
O=C1Nc2ccc(-c3ccc(Cl)cc3F)cc2C(=O)N2CCN(C(=O)Cc3ccccc3)CC12 (stereo not shown) [Compound A31, 7-(4-Chloro-2-fluorophenyl)-2-phenylacetyl-1,3,4,11a-tetrahydro-2H,10H-2,4a,10-triaza-dibenzo[a,d]cycloheptene-5,11-dione] | 17 | > 1
O=C1Nc2ccc(-c3ccc(Cl)cc3)cc2C(=O)N2CCN(C(=O)c3c(C(F)(F)F)nc4ccccn34)CC12 (stereo not shown) [Compound A72, 7-(4-Chlorophenyl)-2-(2-trifluoromethylimidazo[1,2-a]pyridine-3-carbonyl)-1,3,4,11a-tetrahydro-2H,10H-2,4a,10-triazadibenzo[a,d]cycloheptene-5,11-dione] | 70 | > 1
O=C1Nc2ccc(-c3ccc(Cl)cc3)cc2C(=O)N2CCN(C(=O)C3CCCN3C(=O)c3ccncc3)CC12 (stereo not shown) [Compound A110, 7-(4-Chlorophenyl)-2-[1-(pyridine-4-carbonyl)-pyrrolidine-2-carbonyl]-1,3,4,11a-tetrahydro-2H,10H-2,4a,10-triazadibenzo[a,d]cycloheptene-5,11-dione] | 51 | > 1
Cc1ccc(-c2ccc3c(c2)C(=O)N2CCN(C(=O)[C@@H]4CCCN4C4CCNCC4)C[C@@H]2C(=O)N3)c(F)c1F [Compound A101, (R)-7-(2,3-Difluoro-4-methylphenyl)-2-((S)-1-piperidin-4-ylpyrrolidine-2-carbonyl)-1,3,4,11a-tetrahydro-2H,10H-2,4a,10-triaza-dibenzo[a,d]cycloheptene-5,11-dione] | 8 | 0.1 to 1
Cc1nc(C(=O)N2CCN3C(=O)c4cc(-c5ccc(Cl)cc5)ccc4NC(=O)C3C2)c(N)s1 (stereo not shown) [Compound A37, 2-(5-Amino-2-methylthiazole-4-carbonyl)-7-(4-chlorophenyl)-1,3,4,11a-tetrahydro-2H,10H-2,4a,10-triazadibenzo[a,d]cycloheptene-5,11-dione] | 66 | > 1
O=C1Nc2ccc(-c3ccccc3F)cc2C(=O)N2CCN(C(=O)[C@@H]3CSCN3)C[C@H]12 [Compound A10, (R)-7-(2-Fluorophenyl)-2-((R)-thiazolidine-4-carbonyl)-1,3,4,11a-tetrahydro-2H,10H-2,4a,10-triazadibenzo[a,d]cycloheptene-5,11-dione] | 34 | > 1
O=C1Nc2ccc(-c3ccc(Cl)cc3F)cc2C(=O)N2CCN(C(=O)Cc3ccccn3)CC12 (stereo not shown) [Compound A30, 7-(4-Chloro-2-fluorophenyl)-2-(2-pyridin-2-ylacetyl)-1,3,4,11a-tetrahydro-2H,10H-2,4a,10-triaza-dibenzo[a,d]cycloheptene-5,11-dione] | 23 | > 1
O=C1Nc2ccc(-c3ccc(Cl)cc3)cc2C(=O)N2CCN(C(=O)[C@@H](O)c3ccccc3)C[C@H]12 [Compound A1, (R)-7-(4-Chlorophenyl)-2-((S)-2-hydroxy-2-phenylacetyl)-1,3,4,11a-tetrahydro-2H,10H-2,4a,10-triazadibenzo[a,d]cycloheptene-5,11-dione] |  | > 1
O=C1Nc2ccc(-c3cccs3)cc2C(=O)N2CCN(C(=O)CO)C[C@H]12 [Compound A8, (R)-2-(2-Hydroxyacetyl)-7-thiophen-2-yl-1,3,4,11a-tetrahydro-2H,10H-2,4a,10-triazadibenzo[a,d]-cycloheptene-5,11-dione] | 67 | 
O=C1Nc2ccc(-c3ccc(Cl)cc3)cc2C(=O)N2CCN(C(=O)C(O)c3ccccc3Cl)CC12 (stereo not shown) [Compound A40, 7-(4-Chlorophenyl)-2-[2-(2-chlorophenyl)-2-hydroxyacetyl]-1,3,4,11a-tetrahydro-2H,10H-2,4a,10-triazadibenzo[a,d]cycloheptene-5,11-dione] | 48 | > 1
O=C1Nc2ccc(-c3ccc(Cl)cc3)cc2C(=O)N2CCN(C(=O)C3(c4ccccc4)CC3)CC12 (stereo not shown) [Compound A49, 7-(4-Chlorophenyl)-2-(1-phenylcyclopropane-carbonyl)-1,3,4,11a-tetrahydro-2H,10H-2,4a,10-triazadibenzo[a,d]cycloheptene-5,11-dione] |  | > 1

More lines, now with the values ahead:

remaining activity at 10 µM [%] | IC50 [µM] | SMILES
21 | 0.1 to 1 | O=C1Nc2ccc(-c3ccc(Cl)cc3F)cc2C(=O)N2CCN(S(=O)(=O)CC3CCCCC3)C[C@H]12 [Compound A174]
12 | > 1 | O=C([C@@H]1CCCN1C1CCNCC1)N1CCN2C(=O)c3cc(-c4ccc(Cl)cc4F)ccc3N(CCC3CCNCC3)C(=O)[C@@H]2C1 [Compound A164]
-20 | 0.1 to 1 | CC(C)(C)CC(=O)N1CCN2C(=O)c3cc(-c4ccc(Cl)cc4)ccc3N(CCO)C(=O)C2C1 (stereo not shown) [Compound A165]
26 | > 1 | O=C1Nc2ccc(-c3ccc(Cl)cc3)cc2C(=O)N2CCN(C(=O)C3CCCCC3)C[C@H]12 [Compound B17]
79 |  | O=C1Nc2ccc(-c3ccccc3)cc2C(=O)N2CCN(C(=O)c3cccs3)C[C@H]12 [Compound B15]
16 | > 1 | CN(C)CCN1C(=O)[C@H]2CN(C(=O)CC(C)(C)C)CCN2C(=O)c2cc(-c3ccc(Cl)cc3F)ccc21 [Compound A151]
80 |  | O=C1Nc2ccc(-c3ccc(Cl)cc3)cc2C(=O)N2CCN(C(=O)CO)C[C@H]12 [Compound B14]
30 | > 1 | CN1CCN(C(=O)CN2C(=O)[C@@H]3CN(C(=O)CC(C)(C)C)CCN3C(=O)c3cc(-c4ccc(Cl)cc4F)ccc32)CC1 [Compound A162]
45 | > 1 | CC(C)(C)CC(=O)N1CCN2C(=O)c3cc(-c4ccc(Cl)cc4)cnc3NC(=O)C2C1 (stereo not shown) [Compound A139, 3-(4-Chlorophenyl)-8-(3,3-dimethylbutyryl)-7,8,9,9a-tetrahydro-6H,11H-1,5a,8,11-tetraazadibenzo-[a,d]cycloheptene-5,10-dione]
69 |  | N[C@@H](CO)C(=O)N1CCN2C(=O)c3cc(-c4ccc(Cl)cc4F)ccc3NC(=O)[C@H]2C1 [Compound A122, (R)-2-((S)-2-Amino-3-hydroxypropionyl)-7-(4-chloro-2-fluorophenyl)-1,3,4,11a-tetrahydro-2H,10H-2,4a,10-triazadibenzo[a,d]cycloheptene-5,11-dione]
85 |  | O=C1Nc2ccc(-c3cccc(C(F)(F)F)c3)cc2C(=O)N2CCN(C(=O)c3ccccc3)C[C@H]12 [Compound B11]
76 |  | O=C1Nc2ccc(-c3ccccc3F)cc2C(=O)N2CCN(C(=O)C3CCCC3)C[C@@H]12 [Compound B10]
64 |  | O=C1Nc2ccc(-c3ccc(Cl)cc3)cc2C(=O)N2CCN(C(=O)C3CCNCC3)C[C@H]12 [Compound B5]
10 | > 1 | CC(C)(C)CC(=O)N1CCN2C(=O)c3cc(-c4ccc(Cl)cc4F)ccc3N(CCN3CCOCC3)C(=O)[C@H]2C1 [Compound A148]
16 | > 1 | O=C1Nc2ccc(-c3ccc(Cl)cc3F)cc2C(=O)N2CCN(C(=O)[C@@H]3CCCN3C3CCNCC3)C[C@H]12 [Compound A117, (R)-7-(4-Chloro-2-fluorophenyl)-2-((S)-1-piperidin-4-ylpyrrolidine-2-carbonyl)-1,3,4,11a-tetrahydro-2H,10H-2,4a,10-triazadibenzo[a,d]cycloheptene-5,11-dione]
